Laboratory results published in the supplement of paper PMC7600603.

Columns and labels:
Conditions in all cases: 72 h; CellTox Green cytotoxicity
[1] = system: DLD1 NRF2-WT; assay: drug sensitivity score (DSS) cytotoxicity (DSS score); higher = more toxic; extreme values may be limits of the assay
In short: (§1)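 After growth in DMEM with 10% FBS, NRF2 wild-type and CRISPR-edited isogenic DLD1 cells were seeded in 384-well plates and given library compounds at 5 concentrations across a 10,000-fold range. Fluorescence from CellTox Green was taken on a Pherastar FS reader after 72 h and normalised against vehicle wells and 100-μM positive-control wells. From logistic dose-response fits of cytotoxicity came the TC50 and the drug sensitivity score, a normalised area under the curve.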

[2] = system: DLD1 NRF2-GOF; assay: as above
In short: as §1

[3] = system: DLD1 NRF2-WT; assay: TC50 cytotoxicity; higher = less toxic
In short: as §1

[4] = system: DLD1 NRF2-GOF; assay: TC50 cytotoxicity; higher = less toxic
In short: as §1

Compound	drug sensitivity score [1]	drug sensitivity score [2]	TC50 cytotoxicity [3] [µM]	TC50 cytotoxicity [4] [µM]
CC#CC(=O)N1CC[C@@H](n2c(=O)n(-c3ccc(Oc4ccccc4)cc3)c3c(N)ncnc32)C1 [ONO-4059]	0	0	> 1	> 1
Nc1nc(NC2CC2)cc(-c2cccc(Cl)c2Cl)n1 [TH588]	0	0	> 25	> 25
CC1(C)CC[C@]2(NC(=O)C(C)(F)F)CC[C@]3(C)[C@H](C(=O)C=C4[C@@]5(C)C=C(C#N)C(=O)C(C)(C)[C@@H]5CC[C@]43C)[C@@H]2C1 [Omaveloxolone]	0	0	> 10	> 10
CCNCCS(=O)(=O)NC[C@@]1(c2ccccc2)SC(NC(=O)C(C)(C)C)=NN1C(=O)C(C)(C)C [Litronesib]	0	1.6	> 1	> 1
NC(=O)c1cccc2cn(-c3ccc(C4CCCNC4)cc3)nc12 (stereo not given) [Niraparib]	0	0	> 10	> 10
C[C@]12CC[C@@H]3c4ccc(O)cc4C[C@@H](CCCCCCCCC[S+]([O-])CCCC(F)(F)C(F)(F)F)[C@H]3[C@@H]1CC[C@@H]2O (stereo not given in full) [Fulvestrant]	0	0	> 1	> 1
CC(C)c1cc(C(=O)N2Cc3ccc(CN4CCN(C)CC4)cc3C2)c(O)cc1O [Onalespib]	0	0	> 2.5	> 2.5
CNS(=O)(=O)Nc1nccc(Cc2c(C)c3ccc(Oc4ncccn4)cc3oc2=O)c1F	0	0	> 1	> 1
CN(C)c1cc2c(cc1Sc1nc3c(N)nccc3n1CCNCC(C)(C)C)OCO2 [CUDC-305]	0	0	> 10	> 10
CS(=O)(=O)c1ccc(C(=O)Nc2ccc(Cl)c(-c3ccccn3)c2)c(Cl)c1 [Vismodegib]	0	0	> 10	> 10
C[C@@H]1CN(Cc2ccc(F)cc2)[C@@H](C)CN1C(=O)c1cc2c(C(=O)C(=O)N(C)C)cn(C)c2cc1Cl [Talmapimod]	0	0	> 10	> 10
NC(=O)c1cccc(-c2cccc(OC(=O)NC3CCCCC3)c2)c1 [URB597]	0	0	> 1	> 1
CN(CC(=O)N(Cc1ccc(C2CCCCC2)cc1)c1ccc(C(=O)O)cc1)S(=O)(=O)c1c(F)c(F)c(F)c(F)c1F [SH-4-54]	0	0	> 25	> 25
CN1CCN(c2cc(C(=O)Nc3ccc4c(c3)-c3c(c(C(N)=O)nn3-c3ccc(F)cc3)CC4)c(Cl)cn2)CC1 [PHA 408]	0	0	> 10	> 10
COc1ccc(Cn2ccc3ccc(C(=O)NO)cc32)cc1	0	0	> 10	> 10
Cn1nccc1Nc1nccc(-c2ccn([C@H](CO)c3ccc(Cl)c(F)c3)c(=O)c2)n1 [GDC-0994]	0	0	> 10	> 10
C[C@@H]1CCN(C(=O)CC#N)C[C@@H]1N(C)c1ncnc2[nH]ccc12 [Tofacitinib]	0	0	> 5	> 5
Cc1ccc(-c2cc(C(F)(F)F)nn2-c2ccc(S(N)(=O)=O)cc2)cc1 [Celecoxib]	0	0	> 10	> 10
Cc1ccc(NC(=O)c2ccc(CN3CC[C@H](N(C)C)C3)c(C(F)(F)F)c2)cc1Nc1nccc(-c2cncnc2)n1 [Bafetinib]	0	0	> 1	> 1
O[C@H]1CC[C@H](Nc2ncc3nc(Nc4c(F)cc(F)cc4F)n([C@H]4CCOC4)c3n2)CC1 [Tanzisertib]	0	0	> 10	> 10
COc1cc2c(NC3CCN(C(C)C)CC3)nc(N3CCC(F)(F)CC3)nc2cc1OCCCN1CCCC1 [UNC0642]	0	0.1	> 10	> 10
Nc1cccc2c1CN(C1CCC(=O)NC1=O)C2=O (stereo not given) [Lenalidomide]	0	0	> 100	> 100
CCOC(=O)C1=CCCC[C@H]1S(=O)(=O)Nc1ccc(F)cc1Cl [Resatorvid]	0	0	> 10	> 10

Compound	drug sensitivity score [1]	drug sensitivity score [2]	TC50 cytotoxicity [3] [µM]	TC50 cytotoxicity [4] [µM]
N#CC1(c2ccc(NC(=O)c3cccnc3NCc3ccncc3)cc2)CCCC1 [Apatinib]	0	0	> 10	> 10
CCCOc1ccn2c(C(C)=O)cc(-c3ccccc3S(C)(=O)=O)c2c1 [GSK2801]	0	0	> 10	> 10
O=C(CCCCCCNC(=O)c1cnc(N(c2ccccc2)c2ccccc2)nc1)NO [Rocilinostat]	0	0	> 10	> 10
Cn1cc(CNCC2CCN(c3ncc(C(=O)NO)cn3)CC2)c2ccccc21 [Quisinostat]	5.1	0	0.135	> 1
Cc1c(-c2ccc(N3CCc4cccc(C(=O)Nc5nc6ccccc6s5)c4C3)nc2C(=O)O)cnn1CC12CC3CC(CC(C3)C1)C2	–	0	–	> 1
CCC1(c2ccc(N)cc2)CCC(=O)NC1=O (stereo not given) [Aminoglutethimide]	0	0	> 10	> 10
CCN1C(=O)CNc2ncc(-c3ccc(-c4nc[nH]n4)nc3C)nc21 [CC-115]	1.4	0.1	–	> 10
Cc1c(F)cc(C(=O)NC2CC2)cc1-c1ccc(C(=O)NCC(C)(C)C)cn1 [Losmapimod]	0	0	> 10	> 10
C=CCN(/C=C1/C(=O)O[C@H](COC)[C@@]2(C)C1=C(O)C(=O)C1=C2[C@H](OC(C)=O)C[C@]2(C)C(=O)CC[C@@H]12)CC=C [Sonolisib]	0	0	> 10	> 10
NC(=O)/C(=C/n1cnc(-c2cc(C(F)(F)F)cc(C(F)(F)F)c2)n1)c1cncnc1 [KPT-8602]	0	0	> 10	> 10
CNC(=O)[C@@H](NC(=O)[C@H](CC(C)C)[C@H](O)C(=O)NO)C(C)(C)C [Marimastat]	0	0	> 10	> 10
O=C(O)CC1CC(c2ccccc2)=NO1 (stereo not given) [VGX-1027]	0	0	> 10	> 10
CN(C(=O)c1ccc(F)cc1C(F)(F)F)C1CCN(c2nnc(-c3ccnn3C)c3ccccc23)CC1 [Taladegib]	0	0	> 10	> 10
O=C(Nc1cccc(Nc2ncc(Br)c(NCCc3cnc[nH]3)n2)c1)N1CCCC1 [BX-912]	2.2	2.5	> 10	> 10
O=C(c1cccc(Cl)c1F)N1CCN(Cc2cccc(Nc3nccs3)n2)CC1 [MK-8745]	2	2.9	–	1.55
CC(C)(C)c1cc(NC(=O)Nc2ccc(-c3cn4c(n3)sc3cc(OCCN5CCOCC5)ccc34)cc2)no1 [Quizartinib]	0	0	> 1	> 1
N#Cc1ccc2[nH]c(O)c(-c3ccc(CN4CCOCC4)cn3)c2c1 [AZD-1080]	0	0	> 10	> 10
CC(O)(CS(=O)(=O)c1ccc(F)cc1)C(=O)Nc1ccc(C#N)c(C(F)(F)F)c1 (stereo not given) [Bicalutamide]	0	0	> 10	> 10
Cc1sc2c(c1C)C(c1ccc(Cl)cc1)=N[C@@H](CC(=O)Nc1ccc(O)cc1)c1nnc(C)n1-2 [Birabresib]	0	0	> 10	> 10
COc1cc(C(=O)O)ccc1NC(=O)[C@@H]1N[C@@H](CC(C)(C)C)[C@](C#N)(c2ccc(Cl)cc2F)[C@H]1c1cccc(Cl)c1F [Idasanutlin]	0	0	> 10	> 10
CN(C)Cc1ccc(S(=O)(=O)n2ccc(/C=C/C(=O)NO)c2)cc1 [Resminostat]	0	0	> 10	> 10
CC(C)C[C@@H](C(=O)N[C@H](C(=O)OC1CCCC1)c1ccccc1)[C@H](O)C(=O)NO [Tosedostat]	4.9	4.6	–	> 10
